Measured values reported in patent publication US12295997B2, “Prostate neoantigens and their uses” (Janssen Biotech, Inc., priority 2020, dated 2025).

Test system: CD8+ and CD4+ T cells (autologous CD3+ Pan-T cells isolated from human normal PBMCs)
Assay: Exogenous autologous normal donor restimulation assay (15-mer overlapping peptide pools on CD1c+ dendritic cells, TNFα/IFNγ flow cytometry)
Type: cell-based
Conditions: 15-mer overlapping peptide pool; for Max. Fold Change over background CD4+ TNFαINFγ double positive DP / Max. Fold Change over background CD8+ TNFαINFγ double positive DP / Max. Frequency of CD4+ TNFαINFγ DP / Max. Frequency of CD8+ TNFαINFγ DP: Table 28, additional neoantigens, highest across normal donors; for Maximum Fold Change Over Background CD4+ cells / Maximum Fold Change Over Background CD8+ cells / Maximum Frequency of TNFα/IFNγ Double Positive CD4+ T cells / Maximum Frequency of TNFα/IFNγ Double Positive CD8+ T cells: Table 25; for Maximum Fold Change Over Background CD4+ cells: TNFα+IFNγ+ CD4+ T cells; for Maximum Fold Change Over Background CD4+ cells / Maximum Fold Change Over Background CD8+ cells: highest fold change over negative control across normal donors; for Maximum Fold Change Over Background CD8+ cells: TNFα+IFNγ+ CD8+ T cells; for Maximum Frequency of TNFα/IFNγ Double Positive CD4+ T cells / Maximum Frequency of TNFα/IFNγ Double Positive CD8+ T cells: highest frequency across normal donors
Description: CD1c+ Dendritic Cells (DC) isolated from human normal PBMCs were thawed using media (IMDM (Gibco) supplemented with glutamine, HEPES, 5% human serum (Sigma), and 1× Pen-Strep). DC cells were resuspended in media supplemented with IL-4 (Peprotech, 80 ng/mL) and GM-CSF (Gibco, 80 ng/mL), plated in 6 well microplates, and rested overnight at 37° C. (5% CO2). The following day, DC cells were counted and plated in a 96 well round bottom microplate at a concentration of 30,000 viable cells per well. Lyophilized peptides (15-mer overlapping peptides) were solubilized in 100% DMSO and pooled by neoantigen to between 5 mg/mL and 20 mg/mL. Neoantigen peptides pools were added to DCs for a final concentration of […] and rested for 2 hours at 37° C. (5% CO2). CEF Peptide Pool “Plus” (Cellular Technologies, Ltd.) was utilized as a positive control and DMSO at the same final concentration as the experimental peptides was utilized as a negative control. After 2 hours, DC cells were irradiated with 50 gray of ionizing radiation. Autologous CD3+ Pan-T cells isolated from human normal PBMCs were thawed using media. Following irradiation, autologous Pan-T cells were added to the irradiated DCs at 300,000 viable cells per well. Human IL-15 (Peprotech) was added to all wells at final concentration of 10 ng/mL.
Plates were incubated at 37° C. (5% CO2) for a total of 12 days. Media was refreshed every 2-3 days with IL-15 (10 ng/mL final concentration) and IL-2 (R&D systems, 10 IU/mL final concentration). On day 11 cells were re-stimulated with identical experimental peptide pools or controls, at same concentration as peptide stimulation on Day 1. Protein Inhibitor Cocktail (eBioscience) was added to every well and plate was incubated overnight at 37° C. (5% CO2).
On day 12, cells were stained for intracellular flow cytometry analysis. The cells were washed with PBS and stained with Live/Dead Fixable Aqua Dead Cell stain (Thermo-Fisher). Following the live/dead stain, cells were blocked using Biotin-Free Fc Receptor Blocker (Accurate Chemical & Scientific Corp). Extracellular cellular flow panel (1 μL/antibody per well in 50 μL) consisted of CD3 PerCP-Cy5.5 (Biolegend), CD4 BV421 (Biolegend), and CD8 APC-Cy7 (Biolegend). After extracellular staining, cells were fixed using Foxp3/fTranscription Factor Staining Buffer Set (eBioscience) and stained for intracellular proteins (1:50 dilution) using TNFα FITC (R&D Systems) and IFNγ BV785 (Biolegend). Cells were washed and resuspended in stain buffer and analyzed using a BD Celesta flow cytometer.
Flow cytometry cell staining analysis was completed using FlowJo v10. Cells were gated on live, singlet, CD3+ cells. The CD8+ and CD4+ T cells were analyzed for TNFα/IFNγ expression and the frequency of double positive TNFα/IFNγ CD8+ and the frequency of double positive TNFα/IFNγ CD4+ T cells were recorded. Responses were assessed to be positive when the frequency of double positive TNFα/IFNγ CD8+ or TNFα/IFNγ CD4+ T cells due to stimulation with an experimental peptide pool was increased greater than or equal to 3-fold over the DMSO only negative control for that donor and at least 0.01%.
Overlapping 15-mer peptides were designed to span each neoantigen incorporated into NeoGAd20 and NeoMVA to assess their ability to activate T cells using the exogenous autologous normal donor restimulation assay described in Example 1 as pools using TNFα and IFNγ production by CD8^+ and CD4^+ T cells as a readout.
Immunogenicity of various additional identified neoantigens was assessed. Overlapping 15-mer peptides were designed to span each neoantigen similarly to what was done in Example 11 to assess their ability to activate T cells using the exogenous autologous normal donor restimulation assay described in Example 1 as pools using TNFα and IFNγ production by CD8^+ and CD4^+ T cells as a readout.

Row | Sequence | Max. Fold Change over background CD4+ TNFαINFγ double positive DP | Max. Fold Change over background CD8+ TNFαINFγ double positive DP | Max. Frequency of CD4+ TNFαINFγ DP | Max. Frequency of CD8+ TNFαINFγ DP | Maximum Fold Change Over Background CD4+ cells | Maximum Fold Change Over Background CD8+ cells | Maximum Frequency of TNFα/IFNγ Double Positive CD4+ T cells | Maximum Frequency of TNFα/IFNγ Double Positive CD8+ T cells
1 | GLNLNTDRPGGYSYSIWWKNNAKNR (listed as Homo sapiens) [AS17, MPHOSPH9 alternative splicing] | 3.18 | 2.38 | 0.01 | 0.07 |  |  |  | 
2 | GMECTLGQVGAPSPRREEDGWRGGHSRFKADVPAPQGPCWGGQPGSAPSSAPPEQSLLD (listed as Homo sapiens) [AS51, CPNE7 alternative splicing] |  |  |  |  | 8.75 | 33.13 | 0.140 | 0.530
3 | GNTTLQQLGEASQAPSGSLIPLRLPLLWEVRG (listed as Homo sapiens) [AS16, LRRC45 alternative splicing] |  |  |  |  | 7.78 | 24.17 | 0.140 | 0.290
4 | HVVGYGHLDTSGSSSSSSWP (listed as Homo sapiens) [FUS15, D2HGDH->GAL3ST2 gene fusion] |  |  |  |  | 2.79 | 1.75 | 0.039 | 0.028
5 | IARELHQFAFDLLIKSH (listed as Homo sapiens) [Neoantigen M84, AR T878A] |  |  |  |  | 35.84 | 1.39 | 0.31 | 0.03
6 | IIDSDKIMAVCMGCLLTRHVQCQAMEMQQ (listed as Homo sapiens) [AS54, ABCC4 alternative splicing] | 17.87 | 88.15 | 0.18 | 8.33 |  |  |  | 
7 | KENDVREVCDVYLQMQIFFHFKFRSYFH (listed as Homo sapiens) [AS10, CHRNA5 alternative splicing] | 3.97 | 4.33 | 0.23 | 0.08 |  |  |  | 
8 | KEQILAVASLVSSQSIHPSWGQSPLSRI (listed as Homo sapiens) [FUS9, AP5S1->MAVS gene fusion] | 203.97 | 1.82 | 0.77 | 0.07 |  |  |  | 
9 | KIQNKNCPD (listed as Homo sapiens) [AS23, ZNF614 alternative splicing] |  |  |  |  | 5.08 | 3.24 | 0.01 | 0.07
10 | KMHFSLKEHPPPPCPP (listed as Homo sapiens) [FUS19, GTF2F1->PSPN gene fusion] |  |  |  |  | 3.15 | 1.88 | 0.013 | 0.030
11 | KRSFAVTERII (listed as Homo sapiens) [AS13, GRIN3A alternative splicing] |  |  |  |  | 1.96 | 1.67 | 0.05 | 0.10
